Key:
[1] = tested on: oral cavity-derived epithelial cell line (Ca9-22 cells); experiment: Cytotoxicity evaluation test (WST-1); assay type: cell-based; settings: surfactant final concentration 1%, 10 minutes at room temperature, FIGS. 6 and 7
Description: An oral cavity-derived epithelial cell line (Ca9-22 cells) was cultured in a 96-well plate to confluency.
Evaluation solutions were prepared using PBS containing 0.5% DMSO as a solvent so that the final concentration of each surfactant was 1%. The surfactants used were polyoxyethylene (9) lauryl ether, polyoxyethylene (20) cetyl ether, polyoxyethylene (20) stearyl ether, polyoxyethylene (10) octylphenyl ether, polyoxyethylene glycol monolaurate, sorbeth-60 tetraoleate, diethyl sebacate, and polyoxyethylene (10) hydrogenated castor oil.
100 μl of each prepared evaluation solution was individually added to the cultured Ca9-22 cells and allowed to stand for 10 minutes at room temperature. After 10 minutes, washing was performed three times with 200 μl of PBS, a WST-1 reagent (Takara Bio Inc.) was added, and a reaction was allowed to proceed for 30 minutes. After the reaction, the absorbance at 450 nm and 600 nm was measured, and the absorbance at 600 nm was subtracted from the absorbance at 450 nm. The cell viability was calculated from the value calculated by the subtraction, based on the value obtained when only the solvent was added for the treatment taken as 100%. FIGS. 6 and 7 show the results.

[2] = target: T1, MMP-1 (fibroblast collagenase) (Homo sapiens, UniProt P03956); experiment: MMP activity measurement test, MMP-1 fluorimetric drug discovery kit; assay type: biochemical; settings: reaction with enzyme 37° C. 60 minutes, substrate 60 minutes; FIG. 5
T1 construct: purchased Enzo Life Sciences, Inc. BML-AK405-0001
T1 sequence (P03956 100-269 limits assumed): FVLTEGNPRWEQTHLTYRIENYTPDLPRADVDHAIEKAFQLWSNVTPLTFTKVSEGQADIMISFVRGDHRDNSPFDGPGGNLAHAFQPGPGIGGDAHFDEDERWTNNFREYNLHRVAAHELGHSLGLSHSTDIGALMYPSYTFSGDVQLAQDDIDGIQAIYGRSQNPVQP
Description: (§1) Evaluation material solutions were prepared by individually adding each evaluation material at the respective concentrations shown in FIGS. 4 and 5 to a solvent in which 5% DMSO was added to the buffer included in each kit below. The evaluation materials used are EPC-K (L-ascorbic acid dl-α-tocopherol phosphoric acid diester potassium salt), VC (ascorbic acid), VEA (tocopherol acetate), and VEN (tocopherol nicotinate).
(§2) MMP-8 (neutrophil collagenase) activity was evaluated using an MMP-8 fluorimetric drug discovery kit (Enzo Life Sciences, Inc., BML-AK415-0001), and MMP-1 (fibroblast collagenase) activity was evaluated using an MMP-1 fluorimetric drug discovery kit (Enzo Life Sciences, Inc., BML-AK405-0001), in the following manner. […]
(§3) The fluorescent substrate included in each kit was diluted 10-fold using the buffer, and added in an amount of 10 μl to each solution after the reaction for 60 minutes. After the addition, a reaction was allowed to proceed at 37° C. for 20 minutes for MMP-8 or at 37° C. for 60 minutes for MMP-1, and the fluorescence intensity (excitation light: 328 nm; emission light: 420 nm) was measured. […] The concentration of each evaluation material in FIGS. 4 and 5 is the concentration at the time of preparing the evaluation material, and the final concentration (concentration at the time of measuring fluorescence intensity) is 1/5 of this concentration value.

[3] = target: T2, MMP-8 (neutrophil collagenase) (Homo sapiens, UniProt P22894); experiment: MMP activity measurement test, MMP-8 fluorimetric drug discovery kit; assay type: biochemical; settings: reaction with enzyme 37° C. 60 minutes, substrate 20 minutes; FIG. 4
T2 construct: purchased Enzo Life Sciences, Inc. BML-AK415-0001
Description: as §1, §2, §3

T2 sequence (P22894 100-262 limits assumed): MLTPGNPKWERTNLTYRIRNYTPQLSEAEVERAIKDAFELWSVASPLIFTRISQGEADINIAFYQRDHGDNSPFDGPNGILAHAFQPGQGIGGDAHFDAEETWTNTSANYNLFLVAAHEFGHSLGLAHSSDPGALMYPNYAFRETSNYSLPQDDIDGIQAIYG

| Compound | cytotoxicity in oral cavity-derived cells (cell viability) [1] | inhibition of MMP-1 activity [2] | inhibition of MMP-8 activity [3] |
| --- | --- | --- | --- |
| polyoxyethylene (9) lauryl ether | cytotoxicity was caused |  |  |
| polyoxyethylene (10) octylphenyl ether | cytotoxicity was caused |  |  |
| polyoxyethylene glycol monolaurate | cytotoxicity was caused |  |  |
| sorbeth-60 tetraoleate | cytotoxicity was not caused |  |  |
| CCOC(=O)CCCCCCCCC(=O)OCC [diethyl sebacate] | cytotoxicity was not caused |  |  |
| polyoxyethylene (10) hydrogenated castor oil | cytotoxicity was not caused |  |  |
| polyoxyethylene (20) stearyl ether | cytotoxicity was caused |  |  |
| Cc1c(C)c2c(c(C)c1OP(=O)([O-])OC1=C(O)C(C(O)CO)OC1=O)CCC(C)(CCCC(C)CCCC(C)CCCC(C)C)O2.[K+] (racemic) [EPC-K, L-ascorbic acid dl-α-tocopherol phosphoric acid diester potassium salt] |  | inhibited MMP activity (MMP-8 and MMP-1) in a concentration-dependent manner | inhibited MMP activity (MMP-8 and MMP-1) in a concentration-dependent manner |
| polyoxyethylene (20) cetyl ether | cytotoxicity was caused |  |  |
